Measured values: patent publication US11214594B2, “Antimicrobial peptide having synergistic antibacterial effect with antibiotics on multidrug resistant bacteria, and use thereof” (priority 2016, dated 2022)
Converted amounts (≈) assume the structure as drawn. Where a SMILES comes first, the peptide text is derived from it.

What was measured:
MDRAB 12035 = experiment: MIC of antibiotic during combined treatment with antimicrobial peptide; type: cell-based, Acinetobacter baumannii
Method in brief: (§1)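 Antibiotic MIC came from antibiotic dilutions added to bacteria (2×10^6 CFU/ml, MH medium) already combined with peptide serially diluted 2:1 from its own MIC. Swapping the roles of the two agents gave the peptide MIC.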

S. aureus = experiment: microbe, parasite or virus in culture; type: cell-based, Staphylococcus aureus
Method in brief: (§2)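 Broth microdilution in MH medium: bacterial strains diluted to 2×10^6 CFU were mixed with equal volumes of peptide serially diluted twofold in MH medium.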

S. epidermidis = experiment: microbe, parasite or virus in culture; type: cell-based, Staphylococcus epidermidis
Method in brief: as §2

MDRST 8007 = experiment: Minimal inhibitory concentration (MIC), single agent; type: cell-based, Salmonella typhimurium; conditions: agent alone
Method in brief: as §2

MDRPA 2002 = type: cell-based, Pseudomonas aeruginosa
Method in brief: as §2

MDRPA 2003 = type: cell-based, Pseudomonas aeruginosa
Method in brief: as §2

A. baumannii = experiment: MIC of antibiotic during combined treatment with antimicrobial peptide; type: cell-based, Acinetobacter baumannii; conditions: for Antibiotic MIC, Erythromycin / Antibiotic MIC, Linezolid / Antibiotic MIC, Vancomycin: A. baumannii
Method in brief: (§3)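 Antibiotic diluted in MH medium, dispensed per well with peptide; setup repeated with roles reversed; MIC read per combination.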

MDREC 1229 [1] = experiment: as above; type: cell-based, Escherichia coli
Method in brief: as §1

B. subtilis = experiment: microbe, parasite or virus in culture; type: cell-based, Bacillus subtilis
Method in brief: as §2

E. coli [2] = experiment: MIC of antibiotic during combined treatment with antimicrobial peptide; type: cell-based, Escherichia coli; conditions: for Antibiotic MIC, Erythromycin / Antibiotic MIC, Linezolid / Antibiotic MIC, Vancomycin: E. coli
Method in brief: as §3

MDREC 1238 = type: cell-based, Escherichia coli
Method in brief: as §2

MDREC 1229 [3] = experiment: microbe, parasite or virus in culture; type: cell-based, Escherichia coli
Method in brief: as §2

E. coli [4] = experiment: microbe, parasite or virus in culture; type: cell-based, Escherichia coli
Method in brief: as §2

P. aeruginosa = experiment: microbe, parasite or virus in culture; type: cell-based, Pseudomonas aeruginosa
Method in brief: as §2

MRSA 3126 = type: cell-based, Staphylococcus aureus; conditions: 3126
Method in brief: as §2

MRSA 3114 = type: cell-based, Staphylococcus aureus; conditions: 3114
Method in brief: as §2

[5] = peptide treatment concentration 1 μg/ml
[6] = peptide treatment concentration 2 μg/ml
[7] = peptide treatment concentration 4 μg/ml
[8] = peptide treatment concentration 6 μg/ml
[9] = peptide treatment concentration 8 μg/ml
[10] = peptide treatment concentration 16 μg/ml
[11] = peptide treatment concentration 32 μg/ml
[12] = peptide treatment concentration 64 μg/ml
[13] = combined with peptide at 1 μg/ml
[14] = combined with peptide at 2 μg/ml
[15] = combined with peptide at 4 μg/ml
[16] = combined with peptide at 6 μg/ml
[17] = combined with peptide at 8 μg/ml
[18] = combined with peptide at 16 μg/ml
[19] = combined with peptide at 32 μg/ml
[20] = combined with peptide at 64 μg/ml

CC[C@H](C)[C@H](NC(=O)[C@H](CCCCN)NC(=O)[C@H](Cc1c[nH]c2ccccc12)NC(=O)[C@@H](N)CCCNC(=N)N)C(=O)N[C@@H](Cc1ccccc1)C(=O)N[C@@H](CCCCN)C(=O)N[C@@H](CCCCN)C(=O)N[C@H](C(=O)N1CCC[C@H]1C(=O)N[C@@H](CCCCN)C(=O)N[C@@H](CC(C)C)C(=O)N[C@@H](CC(C)C)C(=O)N[C@@H](Cc1c[nH]cn1)C(=O)N[C@@H](CO)C(=O)N[C@@H](CC(C)C)C(=O)N[C@@H](CCCCN)C(=O)N[C@@H](CCCCN)C(=O)N[C@@H](Cc1c[nH]c2ccccc12)C(N)=O)[C@@H](C)CC [PapMA-10, RWK IFK KIP KLL HSL KKW-NH2] (H-RWKIFKKIPKLLHSLKKW-NH2; N-terminus assumed)
Erythromycin MIC during combined treatment with peptide (MDRAB 12035; [5]): 32 µg/mL | Linezolid MIC during combined treatment with peptide (MDRAB 12035; [5]): >128 µg/mL | Vancomycin MIC during combined treatment with peptide (MDRAB 12035; [5]): >128 µg/mL | Erythromycin MIC during combined treatment with peptide (MDRAB 12035; [6]): 32 µg/mL | Linezolid MIC during combined treatment with peptide (MDRAB 12035; [6]): >128 µg/mL | Vancomycin MIC during combined treatment with peptide (MDRAB 12035; [6]): >128 µg/mL | Erythromycin MIC during combined treatment with peptide (MDRAB 12035; [7]): 16 µg/mL | Linezolid MIC during combined treatment with peptide (MDRAB 12035; [7]): 64 µg/mL | Vancomycin MIC during combined treatment with peptide (MDRAB 12035; [7]): 64 µg/mL | Erythromycin MIC during combined treatment with peptide (MDRAB 12035; [8]): 8 µg/mL | Linezolid MIC during combined treatment with peptide (MDRAB 12035; [8]): 32 µg/mL | Vancomycin MIC during combined treatment with peptide (MDRAB 12035; [8]): 32 µg/mL | Erythromycin MIC during combined treatment with peptide (MDRAB 12035; [9]): 8 µg/mL | Linezolid MIC during combined treatment with peptide (MDRAB 12035; [9]): 16 µg/mL | Vancomycin MIC during combined treatment with peptide (MDRAB 12035; [9]): 16 µg/mL | Erythromycin MIC during combined treatment with peptide (MDRAB 12035; [10]): 4 µg/mL | Linezolid MIC during combined treatment with peptide (MDRAB 12035; [10]): 8 µg/mL | Vancomycin MIC during combined treatment with peptide (MDRAB 12035; [10]): 4 µg/mL | Erythromycin MIC during combined treatment with peptide (MDRAB 12035; [11]): 0 µg/mL | Linezolid MIC during combined treatment with peptide (MDRAB 12035; [11]): 2 µg/mL | Vancomycin MIC during combined treatment with peptide (MDRAB 12035; [11]): 4 µg/mL | Erythromycin MIC during combined treatment with peptide (MDRAB 12035; [12]): 0 µg/mL | Linezolid MIC during combined treatment with peptide (MDRAB 12035; [12]): 0 µg/mL | Vancomycin MIC during combined treatment with peptide (MDRAB 12035; [12]): 0 µg/mL | Minimal inhibitory concentration MIC (S. aureus): >128 µg/mL | Minimal inhibitory concentration MIC (S. epidermidis): >128 µg/mL | Minimal inhibitory concentration MIC (MDRST 8007): 32 µg/mL (≈ 13.6 µM) | Minimal inhibitory concentration MIC (MDRPA 2002): 8 µg/mL (≈ 3.41 µM) | Minimal inhibitory concentration MIC (MDRPA 2003): 16 µg/mL (≈ 6.81 µM) | Synergistic effect of antibacterial activity with existing antibiotics compared with PapMA-1 (A. baumannii; A. baumannii and MDRAB 12035): level similar to that of PapMA-1 peptide | Antibiotic MIC, Erythromycin (A. baumannii; [13]): 32 µg/mL | Antibiotic MIC, Linezolid (A. baumannii; [13]): >128 µg/mL | Antibiotic MIC, Vancomycin (A. baumannii; [13]): >128 µg/mL | Antibiotic MIC, Erythromycin (A. baumannii; [14]): 16 µg/mL | Antibiotic MIC, Linezolid (A. baumannii; [14]): 128 µg/mL | Antibiotic MIC, Vancomycin (A. baumannii; [14]): 64 µg/mL | Antibiotic MIC, Erythromycin (A. baumannii; [15]): 8 µg/mL | Antibiotic MIC, Linezolid (A. baumannii; [15]): 64 µg/mL | Antibiotic MIC, Vancomycin (A. baumannii; [15]): 16 µg/mL | Antibiotic MIC, Erythromycin (A. baumannii; [16]): 2 µg/mL | Antibiotic MIC, Linezolid (A. baumannii; [16]): 32 µg/mL | Antibiotic MIC, Vancomycin (A. baumannii; [16]): 16 µg/mL | Antibiotic MIC, Erythromycin (A. baumannii; [17]): 0.5 µg/mL | Antibiotic MIC, Linezolid (A. baumannii; [17]): 8 µg/mL | Antibiotic MIC, Vancomycin (A. baumannii; [17]): 4 µg/mL | Antibiotic MIC, Erythromycin (A. baumannii; [18]): 0 µg/mL | Antibiotic MIC, Linezolid (A. baumannii; [18]): 0 µg/mL | Antibiotic MIC, Vancomycin (A. baumannii; [18]): 0 µg/mL | Antibiotic MIC, Erythromycin (A. baumannii; [19]): 0 µg/mL | Antibiotic MIC, Linezolid (A. baumannii; [19]): 0 µg/mL | Antibiotic MIC, Vancomycin (A. baumannii; [19]): 0 µg/mL | Antibiotic MIC, Erythromycin (A. baumannii; [20]): 0 µg/mL | Antibiotic MIC, Linezolid (A. baumannii; [20]): 0 µg/mL | Antibiotic MIC, Vancomycin (A. baumannii; [20]): 0 µg/mL | Antibiotic MIC, Erythromycin (MDREC 1229 [1]; [5]): >128 µg/mL | Antibiotic MIC, Linezolid (MDREC 1229 [1]; [5]): >128 µg/mL | Antibiotic MIC, Vancomycin (MDREC 1229 [1]; [5]): >128 µg/mL | Antibiotic MIC, Erythromycin (MDREC 1229 [1]; [6]): 64 µg/mL | Antibiotic MIC, Linezolid (MDREC 1229 [1]; [6]): >128 µg/mL | Antibiotic MIC, Vancomycin (MDREC 1229 [1]; [6]): >128 µg/mL | Antibiotic MIC, Erythromycin (MDREC 1229 [1]; [7]): 16 µg/mL | Antibiotic MIC, Linezolid (MDREC 1229 [1]; [7]): 128 µg/mL | Antibiotic MIC, Vancomycin (MDREC 1229 [1]; [7]): >128 µg/mL | Antibiotic MIC, Erythromycin (MDREC 1229 [1]; [8]): 8 µg/mL | Antibiotic MIC, Linezolid (MDREC 1229 [1]; [8]): 64 µg/mL | Antibiotic MIC, Vancomycin (MDREC 1229 [1]; [8]): >128 µg/mL | Antibiotic MIC, Erythromycin (MDREC 1229 [1]; [9]): 2 µg/mL | Antibiotic MIC, Linezolid (MDREC 1229 [1]; [9]): 64 µg/mL | Antibiotic MIC, Vancomycin (MDREC 1229 [1]; [9]): 128 µg/mL | Antibiotic MIC, Erythromycin (MDREC 1229 [1]; [10]): 1 µg/mL | Antibiotic MIC, Linezolid (MDREC 1229 [1]; [10]): 16 µg/mL | Antibiotic MIC, Vancomycin (MDREC 1229 [1]; [10]): 32 µg/mL | Antibiotic MIC, Erythromycin (MDREC 1229 [1]; [11]): 0.25 µg/mL | Antibiotic MIC, Linezolid (MDREC 1229 [1]; [11]): 8 µg/mL | Antibiotic MIC, Vancomycin (MDREC 1229 [1]; [11]): 16 µg/mL | Antibiotic MIC, Erythromycin (MDREC 1229 [1]; [12]): 0 µg/mL | Antibiotic MIC, Linezolid (MDREC 1229 [1]; [12]): 0 µg/mL | Antibiotic MIC, Vancomycin (MDREC 1229 [1]; [12]): 0 µg/mL | Minimal inhibitory concentration MIC (B. subtilis): >128 µg/mL | Synergistic effect of antibacterial activity with existing antibiotics compared with PapMA-1 (E. coli [2]; E. coli and MDREC1229): level similar to that of the PapMA-1 peptide | Antibiotic MIC, Erythromycin (E. coli [2]; erythromycin combined with peptide at 1 μg/ml): 128 µg/mL | Antibiotic MIC, Erythromycin (E. coli [2]; erythromycin combined with peptide at 2 μg/ml): 64 µg/mL | Antibiotic MIC, Erythromycin (E. coli [2]; erythromycin combined with peptide at 4 μg/ml): 32 µg/mL | Antibiotic MIC, Erythromycin (E. coli [2]; erythromycin combined with peptide at 6 μg/ml): 8 µg/mL | Antibiotic MIC, Erythromycin (E. coli [2]; erythromycin combined with peptide at 8 μg/ml): 0.5 µg/mL | Antibiotic MIC, Erythromycin (E. coli [2]; erythromycin combined with peptide at 16 μg/ml): 0.25 µg/mL | Antibiotic MIC, Erythromycin (E. coli [2]; erythromycin combined with peptide at 32 μg/ml): 0 µg/mL | Antibiotic MIC, Erythromycin (E. coli [2]; erythromycin combined with peptide at 64 μg/ml): 0 µg/mL | Antibiotic MIC, Linezolid (E. coli [2]; linezolid combined with peptide at 1 μg/ml): >128 µg/mL | Antibiotic MIC, Linezolid (E. coli [2]; linezolid combined with peptide at 2 μg/ml): >128 µg/mL | Antibiotic MIC, Linezolid (E. coli [2]; linezolid combined with peptide at 4 μg/ml): 128 µg/mL | Antibiotic MIC, Linezolid (E. coli [2]; linezolid combined with peptide at 6 μg/ml): 64 µg/mL | Antibiotic MIC, Linezolid (E. coli [2]; linezolid combined with peptide at 8 μg/ml): 8 µg/mL | Antibiotic MIC, Linezolid (E. coli [2]; linezolid combined with peptide at 16 μg/ml): 4 µg/mL | Antibiotic MIC, Linezolid (E. coli [2]; linezolid combined with peptide at 32 μg/ml): 0 µg/mL | Antibiotic MIC, Linezolid (E. coli [2]; linezolid combined with peptide at 64 μg/ml): 0 µg/mL | Antibiotic MIC, Vancomycin (E. coli [2]; vancomycin combined with peptide at 1 μg/ml): >128 µg/mL | Antibiotic MIC, Vancomycin (E. coli [2]; vancomycin combined with peptide at 2 μg/ml): >128 µg/mL | Antibiotic MIC, Vancomycin (E. coli [2]; vancomycin combined with peptide at 4 μg/ml): 64 µg/mL | Antibiotic MIC, Vancomycin (E. coli [2]; vancomycin combined with peptide at 6 μg/ml): 32 µg/mL | Antibiotic MIC, Vancomycin (E. coli [2]; vancomycin combined with peptide at 8 μg/ml): 16 µg/mL | Antibiotic MIC, Vancomycin (E. coli [2]; vancomycin combined with peptide at 16 μg/ml): 2 µg/mL | Antibiotic MIC, Vancomycin (E. coli [2]; vancomycin combined with peptide at 32 μg/ml): 0 µg/mL | Antibiotic MIC, Vancomycin (E. coli [2]; vancomycin combined with peptide at 64 μg/ml): 0 µg/mL | Minimal inhibitory concentration MIC (MDREC 1238): 64 µg/mL (≈ 27.2 µM) | Minimal inhibitory concentration MIC (MDREC 1229 [3]): 64 µg/mL (≈ 27.2 µM) | Minimal inhibitory concentration MIC (E. coli [4]; 16 h): 32 µg/mL (≈ 13.6 µM) | Antibacterial activity relative to PapMA-1 (E. coli [4]; E. coli): at least twice as high | Minimal inhibitory concentration MIC (P. aeruginosa): 8 µg/mL (≈ 3.41 µM) | Minimal inhibitory concentration MIC (MRSA 3126): >128 µg/mL | Minimal inhibitory concentration MIC (MRSA 3114): >128 µg/mL
